Where two headings read alike, the source gives them in different places.
Tests used:
[1] = target: smooth muscle angiotensin II receptor; test: Assay A: Angiotensin II Binding Activity (displacement of 125I-angiotensin II, rat uterine membrane preparation); conditions: 50% displacement of specifically bound 125I-AII, rat uterine membranes, 25° C., 60 min, pH 7.5
Description: Assay A: Angiotensin II Binding Activity
Compounds of the invention were tested for ability to bind to the smooth muscle angiotensin II receptor using a rat uterine membrane preparation. Angiotensin II (AII) was purchased from Peninsula Labs. ^125 I-angiotensin II (specific activity of 2200 Ci/mmol) was purchased from Du Pont-New England Nuclear. Other chemicals were obtained from Sigma Chemical Co. This assay was carried out according to the method of Douglas et al [Endocrinology, 106, 120-124 (1980)]. Rat uterine membranes were prepared from fresh tissue. All procedures were carried out at 4° C. Uteri were stripped of fat and homogenized in phosphate-buffered saline at pH 7.4 containing 5 mM EDTA. The homogenate was centrifuged at 1500×g for 20 min., and the supernatant was recentrifuged at 100,000×g for 60 min. The pellet was resuspended in buffer consisting of 2 mM EDTA and 50 mM Tris-HCl (pH 7.5) to a final protein concentration of 4 mg/ml. Assay tubes were charged with 0.25 ml of a solution containing 5 mM MgCl2, 2 mM EDTA, 0.5% bovine serum albumin, 50 mM Tris-HCl, pH 7.5 and ^125 I-AII (approximately 10^5 cpm) in the absence or in the presence of unlabelled ligand. The reaction was initiated by the addition of membrane protein and the mixture was incubated at 25° C. for 60 min. The incubation was terminated with ice-cold 50 mM Tris-HCl (pH 7.5) and the mixture was filtered to separate membrane-bound labeled peptide from the free ligand. The incubation tube and filter were washed with ice-cold buffer. Filters were assayed for radioactivity in a Micromedic gamma counter. Nonspecific binding was defined as binding in the presence of 10 μM of unlabelled AII. Specific binding was calculated as total binding minus nonspecific binding. The receptor binding affinity of an AII antagonist compound was indicated by the concentration (IC50) of the tested AII antagonist which gives 50% displacement of the total specifically bound ^125 I-AII from the high affinity AII receptor. Binding data were analyzed by a nonlinear least-squares curve fitting program.

[2] = target: T1, rabbit aortic rings (angiotensin II contraction) (Oryctolagus cuniculus, UniProt P34976); test: Assay B: In Vitro Vascular Smooth Muscle Response for AII (rabbit aortic rings); format: cell-based, rabbit (male New Zealand white); conditions: rabbit aorta rings, antagonist 10^-5 M for 5 min, 37° C., read-out: Assay B pA2 (converted)
T1 construct: The thoracic aorta was removed, cleaned of adherent fat and connective tissue and then cut into 3-mm ring segments; from tissue; host or cells: rabbit thoracic aorta rings, endothelium removed
T1 sequence (P34976 1-359): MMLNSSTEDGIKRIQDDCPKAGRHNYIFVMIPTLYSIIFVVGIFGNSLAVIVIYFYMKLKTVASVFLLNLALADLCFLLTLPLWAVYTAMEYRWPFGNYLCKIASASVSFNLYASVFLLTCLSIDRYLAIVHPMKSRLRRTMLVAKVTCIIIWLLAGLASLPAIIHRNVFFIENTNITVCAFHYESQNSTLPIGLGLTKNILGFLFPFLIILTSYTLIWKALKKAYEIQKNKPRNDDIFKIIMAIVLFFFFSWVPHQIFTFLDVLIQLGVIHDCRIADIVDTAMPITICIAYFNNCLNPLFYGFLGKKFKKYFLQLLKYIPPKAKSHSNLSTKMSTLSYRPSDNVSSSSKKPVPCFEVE
Description: Assay B: In Vitro Vascular Smooth Muscle-Response for AII
The compounds of the invention were tested for antagonist activity in rabbit aortic rings. Male New Zealand white rabbits (2-2.5 kg) were sacrificed using an overdose of pentobarbital and exsanguinated via the carotid arteries. The thoracic aorta was removed, cleaned of adherent fat and connective tissue and then cut into 3-mm ring segments. The endothelium was removed from the rings by gently sliding a rolled-up piece of filter paper into the vessel lumen. The rings were then mounted in a water-jacketed tissue bath, maintained at 37° C., between moveable and fixed ends of a stainless steel wire with the moveable end attached to an FT03 Grass transducer coupled to a Model 7D Grass Polygraph for recording isometric force responses. The bath was filled with 20 ml of oxygenated (95% oxygen/5% carbon dioxide) Krebs solution of the following composition (mM): 130 NaCl, 15 NaHCO3, […], 1.2 NaH2 PO4, 1.2 MgSO4, 2.5 CaCl2, and 11.4 glucose. The preparations were equilibrated for one hour before approximately one gram of passive tension was placed on the rings. Angiotensin II concentration-response curves were then recorded (3×10^-10 to 1×10^-5 M). Each concentration of AII was allowed to elicit its maximal contraction, and then AII was washed out repeatedly for 30 minutes before rechallenging with a higher concentration of AII. Aorta rings were exposed to the test antagonist at 10^-5 M for 5 minutes before challenging with AII. Adjacent segments of the same aorta ring were used for all concentration-response curves in the presence or absence of the test antagonist. The effectiveness of the test compound was expressed in terms of pA2 values and were calculated according to H. O. Schild [Br. J. Pharmacol. Chemother., 2, 189-206 (1947)]. The pA2 value is the concentration of the antagonist which increases the IC50 value for AII by a factor of two. Each test antagonist was evaluated in aorta rings from two rabbits.

[3] = first of two values in the cell (rings from two rabbits)
[4] = second of two values in the cell (rings from two rabbits)

Q: How did the IC50 [1] turn out when `CCCCc1ncc2n1[C@@H](c1ccc(-c3ccccc3-c3nn[nH]n3)cc1)CC[C@H]2O` (relative stereo) [Example 13, 3-Butyl-5,6,7,8-tetrahydro-5-[2'-(1H-tetrazol-5-yl)[1,1'-biphenyl]-4-yl]imidazo[1,5-a]pyridin-cis-8-ol] was run?
A: 23 nM

Q: What about the Kb [2, 3] of the same compound?
A: 100 nM

Q: What about the Kb [2, 4] of the same compound?
A: 138 nM

Q: With `CCCCc1ncc2n1[C@@H](c1ccc(-c3ccccc3-c3nn[nH]n3)cc1)CC[C@@H]2O` (relative stereo) [Example 14, 3-Butyl-5,6,7,8-tetrahydro-5-[2'-(1H-tetrazol-5-yl)[1,1'-biphenyl]-4-yl]imidazo[1,5-a]pyridin-trans-8-ol] as the compound, how does the IC50 [1] read?
A: 120 nM

Q: And the Kb [2, 3]?
A: 331 nM

Q: What about the Kb [2, 4] of the same compound?
A: 550 nM

Q: Which results are given for `CCCCc1ncc2n1[C@@H](c1ccc(-c3ccccc3-c3nn[nH]n3)cc1)CC[C@H]2CC(=O)OC(C)(C)C` (relative stereo) [Example 19, 1,1-Dimethylethyl 3-butyl-5,6,7,8-tetrahydro-5-[2'-(1H-tetrazol-5-yl)[1,1'-biphenyl]-4-yl]imidazo[1,5-a]pyridin-cis-8-acetate]?
A: IC50 [1]: 67 nM; Kb [2, 3]: 70.8 nM; Kb [2, 4]: 141 nM

Q: What does the source list for `CCCCc1ncc2n1[C@@H](c1ccc(-c3ccccc3-c3nn[nH]n3)cc1)CC[C@H]2CC(=O)O` (relative stereo) [Example 20, 3-Butyl-5,6,7,8-tetrahydro-5-[2'-(1H-tetrazol-5-yl)[1,1'-biphenyl]-4-yl]imidazo[1,5-a]pyridin-cis-8-acetic acid]?
A: IC50 [1]: 240 nM; Kb [2, 3]: 129 nM; Kb [2, 4]: 141 nM

Q: How did the IC50 [1] turn out when `CCCCc1ncc2n1[C@H](c1ccc(-c3ccccc3-c3nnn[nH]3)cc1)CC[C@@H]2OCc1ccccc1` (relative stereo) [Example 24, 3-Butyl-5,6,7,8-tetrahydro-5-[2'-(1H-tetrazol-5-yl)[1,1'-biphenyl]-4-yl]-cis-8-phenylmethoxy-imidazo[1,5-a]pyridine] was run?
A: 36 nM

Q: `CCCCc1nc(CCCC)n2c1C=CCC2c1ccc(-c2ccccc2-c2nnn[nH]2)cc1` (stereo not shown) [Example 1, 1,3-Dibutyl-5,6-dihydro-5-[2'-(1H-tetrazol-5-yl)[1,1'-biphenyl]-4-yl]imidazo[1,5-a]pyridine] was tested. Which IC50 [1] did it give?
A: 190 nM

Q: And the Kb [2, 3]?
A: 398 nM

Q: What about the Kb [2, 4] of the same compound?
A: 537 nM

Q: With `CCCCc1nc(CCCC)n2c1C=C(Br)CC2c1ccc(-c2ccccc2-c2nnn[nH]2)cc1` (stereo not shown) [Example 2, 7-Bromo-1,3-dibutyl-5,6-dihydro-5-[2'-(1H-tetrazol-5-yl)[1,1'-biphenyl]-4-yl]imidazo[1,5-a]pyridine] as the compound, how does the IC50 [1] read?
A: 2100 nM

Q: What about the Kb [2, 3] of the same compound?
A: 1450 nM

Q: What about the Kb [2, 4] of the same compound?
A: 263 nM

Q: Which IC50 [1] does the source give for `CCCCc1nc(CCCC)n2c1CCCC2c1ccc(-c2ccccc2-c2nnn[nH]2)cc1` (stereo not shown) [Example 3, 1,3-Dibutyl-5,6,7,8-tetrahydro-5-[2'-(1H-tetrazol-5-yl)[1,1'-biphenyl]-4-yl]imidazo[1,5-a]pyridine] here?
A: 270 nM

Q: And the Kb [2, 3]?
A: 53.7 nM

Q: What about the Kb [2, 4] of the same compound?
A: 224 nM

Q: Which IC50 [1] does the source give for `CCCCc1nc(CCCC)n2c1C(O)CCC2c1ccc(-c2ccccc2-c2nnn[nH]2)cc1` (stereo not shown) [Example 4, 1,3-Dibutyl-5,6,7,8-tetrahydro-5-[2'-(1H-tetrazol-5-yl)[1,1'-biphenyl]-4-yl]imidazo[1,5-a]pyridin-8-ol] here?
A: 51 nM

Q: And the Kb [2, 3]?
A: 22.4 nM

Q: What about the Kb [2, 4] of the same compound?
A: 14.5 nM

Q: `CCCCc1nc(CCCC)n2c1C(=O)CCC2c1ccc(-c2ccccc2-c2nn[nH]n2)cc1` (stereo not shown) [Example 5, 1,3-Dibutyl-5,6-dihydro-5-[2'-(1H-tetrazol-5-yl)[1,1'-biphenyl]-4-yl]imidazo[1,5-a]pyridin-8(5H)-one] was tested. Which IC50 [1] did it give?
A: 60 nM

Q: And the Kb [2, 3]?
A: 13.8 nM

Q: What about the Kb [2, 4] of the same compound?
A: 7.08 nM

Q: For `CCCCc1nc(CCCC)n2c1C(c1ccccc1)=CCC2c1ccc(-c2ccccc2-c2nnn[nH]2)cc1` (stereo not shown) [Example 6, 1,3-Dibutyl-5,6-dihydro-8-phenyl-5-[2'-(1H-tetrazol-5-yl)[1,1'-biphenyl]-4-yl]imidazo[1,5-a]pyridine], which IC50 [1] is on record?
A: 2800 nM

Q: For `CCCCc1nc(CCCC)n2c1C(=CC(=O)O)CCC2c1ccc(-c2ccccc2-c2nnn[nH]2)cc1` (stereo not shown) [Example 7, [1,3-Dibutyl-6,7-dihydro-5-[2'-(1H-tetrazol-5-yl)[1,1'-biphenyl]-4-yl]imidazo[1,5-a]pyridin-8(5H)-ylidene]acetic acid], which IC50 [1] is on record?
A: 15000 nM

Q: With `CCCCc1nc(CCCC)n2c1C(N1C(=O)CCC1=O)CCC2c1ccc(-c2ccccc2-c2nnn[nH]2)cc1` (stereo not shown) [Example 8, 1-[1,3-Dibutyl-5,6,7,8-tetrahydro-5-[2'-(1H-tetrazol-5-yl)[1,1'-biphenyl]-4-yl]imidazo[1,5-a]pyridin-8-yl]-2,5-pyrrolidinedione] as the compound, how does the IC50 [1] read?
A: 27 nM

Q: Which IC50 [1] does the source give for `CCCCc1nc(CCCC)n2c1C(NC(=O)CCC(=O)NN)CCC2c1ccc(-c2ccccc2-c2nn[nH]n2)cc1` (stereo not shown) [Example 9] here?
A: 44 nM

Q: What about the Kb [2, 3] of the same compound?
A: 70.8 nM

Q: And the Kb [2, 4]?
A: 57.5 nM

Q: Which IC50 [1] does the source give for `CCCCc1nc(CCCC)n2c1C=CCCC2c1ccc(-c2ccccc2-c2nnn[nH]2)cc1` (stereo not shown) [Example 10, 1,3-Dibutyl-6,7-dihydro-5-[2'-(1H-tetrazol-5-yl)[1,1'-biphenyl]-4-yl]-5H-imidazo[1,5-a]azepine] here?
A: 330 nM

Q: How did the IC50 [1] turn out when `CCCCc1ncc2n1C(c1ccc(-c3ccccc3-c3nnn[nH]3)cc1)CC=C2` (stereo not shown) [Example 11, 3-Butyl-5,6-dihydro-5-[2'-(1H-tetrazol-5-yl)[1,1'-biphenyl]-4-yl]imidazo[1,5-a]pyridine] was run?
A: 120 nM

Q: What does the source list for `CCCCc1ncc2n1C(c1ccc(-c3ccccc3-c3nn[nH]n3)cc1)CCC2=O` (stereo not shown) [Example 12, 3-Butyl-5,6-dihydro-5-[2'-(1H-tetrazol-5-yl)[1,1'-biphenyl]-4-yl]imidazo[1,5-a]pyridin-8(5H)-one]?
A: IC50 [1]: 110 nM; Kb [2, 3]: 219 nM; Kb [2, 4]: 89.1 nM

Q: With `CCCCc1ncc2n1C(c1ccc(-c3ccccc3-c3nnn[nH]3)cc1)CCC2=CC(=O)OC(C)(C)C` (stereo not shown) [Example 15, 1,1-Dimethylethyl [3-butyl-6,7-dihydro-5-[2'-(1H-tetrazol-5-yl)[1,1'-biphenyl]-4-yl]imidazo[1,5-a]pyridin-8(5H)-ylidene]acetate] as the compound, how does the IC50 [1] read?
A: 160 nM

Q: And the Kb [2, 3]?
A: 347 nM

Q: And the Kb [2, 4]?
A: 186 nM

Q: Which results are given for `CCCCc1ncc2n1C(c1ccc(-c3ccccc3-c3nnn[nH]3)cc1)CCC2=CC(=O)O` (stereo not shown) [Example 16, [3-Butyl-6,7-dihydro-5-[2'-(1H-tetrazol-5-yl)[1,1'-biphenyl]-4-yl]imidazo[1,5-a]pyridin-8(5H)-ylidene]acetic acid]?
A: IC50 [1]: 440 nM; Kb [2, 3]: 7.76 nM; Kb [2, 4]: 16.2 nM

Q: `CCCCc1ncc2n1C(c1ccc(-c3ccccc3-c3nnn[nH]3)cc1)CC=C2CC(=O)O` (stereo not shown) [Example 18, 3-Butyl-5,6-dihydro-5-[2'-(1H-tetrazol-5-yl)[1,1'-biphenyl]-4-yl]imidazo[1,5-a]pyridin-8-acetic acid] was tested. Which IC50 [1] did it give?
A: 200 nM

— patent US5674879A, “Compositions including and methods of using conformationally restricted angiotensin II antagonist” (G.D. Searle & Co., priority 1995, dated 1997)
